# Results: ChEMBL document CHEMBL4699468, “Structural hybridization as a facile approach to new drug candidates” (Bioorg Med Chem Lett, 2020)
# How the values were obtained:
# Escherichia coli [1] = assay: Antibacterial activity against Escherichia coli; assay type: functional
# Staphylococcus aureus [2] = assay: Antibacterial activity against Staphylococcus aureus; assay type: functional
# Plasmodium falciparum [3] = assay: Antiplasmodial activity against Plasmodium falciparum W2; assay type: functional, organism-based
# Plasmodium falciparum [4] = assay: Antiplasmodial activity against chloroquine-resistant Plasmodium falciparum Dd2 infected in human erythrocytes incubated for 72 hrs by SYBR green staining based fluorescence assay; assay type: functional, organism-based; details: Dd2, 72 h
# Plasmodium falciparum [5] = assay: Antiplasmodial activity against chloroquine-resistant Plasmodium falciparum K1 infected in human erythrocytes incubated for 72 hrs by SYBR green staining based fluorescence assay; assay type: functional, organism-based; details: K1, 72 h
# Pseudomonas aeruginosa [6] = assay: Antibacterial activity against Pseudomonas aeruginosa ATCC 91433; assay type: functional
# MCF7 = assay: Cytotoxicity against human MCF7 by microculture tetrazolium assay; assay type: functional, cell-based
# Pseudomonas aeruginosa [7] = assay: Antibacterial activity against Pseudomonas aeruginosa ATCC 27853 incubated for 24 hrs by CLSI-based macrobroth dilution method; assay type: functional
# Escherichia coli [8] = assay: Antibacterial activity against Escherichia coli incubated for 18 hrs by agar dilution method; assay type: functional
# Staphylococcus aureus [9] = assay: Antibacterial activity against Staphylococcus aureus incubated for 18 hrs by agar dilution method; assay type: functional
# Citrobacter freundii = assay: Antibacterial activity against Citrobacter freundii incubated for 18 hrs by agar dilution method; assay type: functional
# Enterobacter cloacae = assay: Antibacterial activity against Enterobacter cloacae incubated for 18 hrs by agar dilution method; assay type: functional
# Hafnia alvei = assay: Antibacterial activity against Enterobacter hafniae incubated for 18 hrs by agar dilution method; assay type: functional
# Klebsiella aerogenes = assay: Antibacterial activity against Klebsiella aerogenes incubated for 18 hrs by agar dilution method; assay type: functional
# Providencia rettgeri = assay: Antibacterial activity against Proteus rettgeri incubated for 18 hrs by agar dilution method; assay type: functional
# Morganella morganii [10] = assay: Antibacterial activity against Proteus morganii incubated for 18 hrs by agar dilution method; assay type: functional
# Morganella morganii [11] = assay: Antibacterial activity against Proteus morganii NCTC235 incubated for 18 hrs by agar dilution method; assay type: functional
# Proteus mirabilis = assay: Antibacterial activity against Proteus mirabilis 431 incubated for 18 hrs by agar dilution method; assay type: functional
# Plasmodium falciparum [12] = assay: Antiplasmodial activity against […] Plasmodium falciparum 3D7 infected in human erythrocytes incubated for 72 hrs by SYBR green staining based fluorescence assay; assay type: functional, organism-based; details: 3D7, 72 h
# MDA-MB-231 = assay: Growth inhibition of human MDA-MBA-231 cells incubated for 72 hrs by MTT assay; assay type: functional, cell-based; details: MDA-MB-231, 72 h
# A549 = assay: Growth inhibition of human A549 cells incubated for 72 hrs by MTT assay; assay type: functional, cell-based; details: A549, 72 h
# HT-29 = assay: Growth inhibition of human HT-29 cells incubated for 72 hrs by MTT assay; assay type: functional, cell-based; details: HT-29, 72 h
# Human betaherpesvirus 5 = assay: Antiviral activity against GFP-transfected Human cytomegalovirus AD169 infected in human HFF cells measured after 7 days by GFP fluorometry; assay type: functional, cell-based; details: Human betaherpesvirus 5, AD169, HFF, 168 h
smiles,measurement,setting,value
COc1cc(Cc2cnc(N)nc2N)cc(OC)c1OCCN1CCN(c2cc3c(cc2F)c(=O)c(C(=O)O)cn3C2CC2)CC1,MIC,Escherichia coli [1],1 µg/mL
same,MIC,Staphylococcus aureus [2],0.5 µg/mL
COc1cc(NCCCCn2c(-c3ccc(F)cc3)c(-c3ccccc3)c(C(=O)Nc3ccccc3)c2C(C)C)c2ncccc2c1,IC50,Plasmodium falciparum [3],1410 nM
C[C@H]1[C@@H](OCc2cn(-c3ccnc4cc(Cl)ccc34)nn2)O[C@@H]2O[C@@]3(C)CC[C@H]4[C@H](C)CC[C@@H]1[C@@]24OO3,EC50,Plasmodium falciparum [4],5.9 nM
same,EC50,Plasmodium falciparum [5],4.3 nM
C[C@H]1[C@H](OC(=O)CCC(=O)NCCNc2ccnc3cc(Cl)ccc23)O[C@@H]2O[C@@]3(C)CC[C@H]4[C@H](C)CC[C@@H]1[C@@]24OO3,EC50,Plasmodium falciparum [4],1 nM
same,EC50,Plasmodium falciparum [5],0.78 nM
N[C@@H](CCl)C(=O)N[C@@H](CCl)C(=O)OCC1=C(C(=O)O)N2C(=O)[C@@H](NC(=O)Cc3cccs3)[C@H]2SC1,MIC,Escherichia coli [1],7.05 µg/mL
NCCCCC(N)C(=O)N(CCCCCCCCCCCCO[C@@H]1[C@@H](O[C@@H]2O[C@H](CO)[C@@H](O)[C@H](N)[C@H]2O)[C@H](N)C[C@H](N)[C@H]1O[C@H]1O[C@H](CN)[C@@H](O)[C@H](O)[C@H]1N)Cc1c2ccccc2c(Cl)c2ccccc12 (stereo not given in full),MIC,Pseudomonas aeruginosa [6],8 µg/mL
C[C@H]1[C@@H](CCS(=O)(=O)CC[C@H]2O[C@@H]3O[C@]4(C)CC[C@H]5[C@H](C)CC[C@@H]([C@H]2C)[C@@]35OO4)O[C@@H]2O[C@]3(C)CC[C@H]4[C@H](C)CC[C@@H]1[C@@]24OO3,EC50,MCF7,25 nM
NC[C@H]1O[C@H](O[C@H]2[C@H](OCCCCCCCCCCCCN3CCN(c4cc5c(cc4F)c(=O)c(C(=O)O)cn5C4CC4)CC3)[C@@H](O[C@@H]3O[C@H](CO)[C@@H](O)[C@H](N)[C@H]3O)[C@H](N)C[C@@H]2N)[C@H](N)[C@@H](O)[C@@H]1O,MIC,Pseudomonas aeruginosa [7],4 µg/mL
C[C@H]1[C@H](OC(=O)CCC(=O)OCc2cn(-c3ccnc4cc(Cl)ccc34)nn2)O[C@@H]2O[C@@]3(C)CC[C@H]4[C@H](C)CC[C@@H]1[C@@]24OO3,EC50,Plasmodium falciparum [4],4.2 nM
same,EC50,Plasmodium falciparum [5],1.8 nM
O=C(O)C1=C(CSc2cccc[n+]2[O-])CS[C@@H]2[C@H](NC(=O)[C@H](O)c3ccccc3)C(=O)N12,MIC,Escherichia coli [8],0.5 µg/mL
same,MIC,Staphylococcus aureus [9],0.5 µg/mL
same,MIC,Citrobacter freundii,0.5 µg/mL
same,MIC,Enterobacter cloacae,0.5 µg/mL
same,MIC,Hafnia alvei,0.5 µg/mL
same,MIC,Klebsiella aerogenes,0.5 µg/mL
same,MIC,Providencia rettgeri,0.5 µg/mL
same,MIC,Morganella morganii [10],0.5 µg/mL
same,MIC,Morganella morganii [11],0.5 µg/mL
same,MIC,Proteus mirabilis,0.5 µg/mL
C[C@H]1[C@H](OC(=O)CCC(=O)OCCOC(=O)CC(=O)OCCOC(=O)CCC(=O)O[C@@H]2O[C@@H]3O[C@@]4(C)CC[C@H]5[C@H](C)CC[C@@H]([C@H]2C)[C@@]35OO4)O[C@@H]2O[C@@]3(C)CC[C@H]4[C@H](C)CC[C@@H]1[C@@]24OO3,EC50,Plasmodium falciparum [12],1.4 nM
C[C@H]1[C@@H](OCCNC(=Nc2cc(C(F)(F)F)ccc2Cl)NCCO[C@H]2O[C@@H]3O[C@]4(C)CC[C@H]5[C@H](C)CC[C@@H]([C@H]2C)[C@@]35OO4)O[C@@H]2O[C@]3(C)CC[C@H]4[C@H](C)CC[C@@H]1[C@@]24OO3,EC50,MDA-MB-231,1420 nM
same,EC50,A549,240 nM
same,EC50,HT-29,1400 nM
C[C@H]1[C@H](OC(=O)CCC(=O)OCCCNc2ncnc3c(C#N)c(-c4ccc(C(F)(F)F)cc4)cc(-c4ccc(C(F)(F)F)cc4)c23)O[C@@H]2O[C@]3(C)CC[C@H]4[C@H](C)CC[C@@H]1[C@@]24OO3,EC50,Human betaherpesvirus 5,100 nM
CCN(CC)CCCC(C)Nc1ccnc2cc(Cl)ccc12 (stereo not given) [CHLOROQUINE],EC50,Plasmodium falciparum [4],165 nM
same,EC50,Plasmodium falciparum [5],303 nM
